Data published in patent US10597388B2, “Pyridazinone herbicides” (FMC CORPORATION, priority 2014, dated 2020).

What was measured:
Assay in all cases: Test E greenhouse herbicide test, pre- and postemergence
Format in all cases: in vivo
[1] = test system: arrowleaf sida (Sida rhombifolia)
From the text: (§1) Seeds of plant species selected from corn (Zea mays), soybean (Glycine max), velvetleaf (Abutilon theophrasti), lambsquarters (Chenopodium album), wild poinsettia (Euphorbia heterophylla), pigweed, palmer (palmer pigweed, Amaranthus palmeri), waterhemp (common waterhemp, Amaranthus rudis), surinam grass (Brachiaria decumbens), crabgrass, large (large crabgrass, Digitaria sanguinalis), crabgrass, Brazilian (Brazilian crabgrass, Digitaria horizontalis), panicum, fall (fall panicum, Panicum dichotomiflorum), foxtail, giant (giant foxtail, Setaria faberii), foxtail, green (green foxtail, Setaria viridis), goosegrass (Eleusine indica), johnsongrass (Sorghum halepense), ragweed (common ragweed, Ambrosia elatior), barnyardgrass (Echinochloa crus-galli), sandbur (southem sandbur, Cenchrus echinatus), arrowleaf sida (Sida rhombifolia), Italian ryegrass (Lolium multiflorum), dayflower (Virginia (VA) dayflower, Commelina virginica), field bindweed (Convolvulus arvensis), momingglory (Ipomoea coccinea), nightshade (eastern black nightshade, Solanum ptycanthum), kochia (Kochia scoparia), nutsedge, yellow (yellow nutsedge, Cyperus esculentus), horseweed (Conyza canadensis), and beggarticks (hairy beggarticks, Bidens pilosa), were planted into a silt loam soil and treated preemergence with test chemicals formulated in a non-phytotoxic solvent mixture which included a surfactant.
(§2) At the same time, plants from these crop and weed species and also waterhemp_RES1, (ALS & Triazine resistant common waterhemp, Amaranthus rudis), and waterhemp_RES2, (ALS & HPPD resistant common waterhemp, Amaranthus rudis) were planted in pots containing Redi-Earth® planting medium (Scotts Company, 14111 Scottslawn Road, Marysville, Ohio 43041) comprising spaghnum peat moss, vermiculite, wetting agent and starter nutrients were treated with postemergence applications of test chemicals formulated in the same manner. Plants ranged in height from 2 to 18 cm for postemergence treatments (1- to 4-leaf stage). Treated plants and controls were maintained in a greenhouse for 14 to 21 d, after which time all species were compared to controls and visually evaluated. Plant response ratings, summarized in Table E, are based on a scale of 0 to 100 where 0 is no effect and 100 is complete control. A dash (-) response means no test result.

[2] = test system: barnyardgrass (Echinochloa crus-galli)
From the text: as §1, §2

[3] = test system: crabgrass, Brazilian (Brazilian crabgrass, Digitaria horizontalis)
From the text: as §1, §2

[4] = test system: crabgrass, large (large crabgrass, Digitaria sanguinalis); conditions: Preemergence
From the text: as §1, §2

[5] = test system: field bindweed (Convolvulus arvensis)
From the text: as §1, §2

[6] = test system: foxtail, giant (giant foxtail, Setaria faberii); conditions: Preemergence
From the text: as §1, §2

[7] = test system: goosegrass (Eleusine indica); conditions: Preemergence
From the text: as §1, §2

[8] = test system: horseweed (Conyza canadensis)
From the text: as §1, §2

[9] = test system: johnsongrass (Sorghum halepense); conditions: Preemergence
From the text: as §1, §2

[10] = test system: momingglory (Ipomoea coccinea); conditions: Preemergence
From the text: as §1, §2

[11] = test system: nightshade (eastern black nightshade, Solanum ptycanthum); conditions: Preemergence
From the text: as §1, §2

[12] = test system: panicum, fall (fall panicum, Panicum dichotomiflorum)
From the text: as §1, §2

[13] = test system: pigweed, palmer (palmer pigweed, Amaranthus palmeri)
From the text: as §1, §2

[14] = test system: ragweed (common ragweed, Ambrosia elatior)
From the text: as §1, §2

soybean (Glycine max) = test system: soybean (Glycine max)
From the text: as §1, §2

[15] = test system: surinam grass (Brachiaria decumbens); conditions: Preemergence
From the text: as §1, §2

[16] = 62 g ai/ha, Postemergence, scale 0 to 100 (0 no effect, 100 complete control)
[17] = 62 g ai/ha, Preemergence, scale 0 to 100 (0 no effect, 100 complete control)
[18] = 125 g ai/ha, Postemergence, scale 0 to 100 (0 no effect, 100 complete control)
[19] = 250 g ai/ha, Postemergence, scale 0 to 100 (0 no effect, 100 complete control)
[20] = Postemergence, 31 g ai/ha, visual, scale 0 no effect to 100 complete control
[21] = Preemergence, 31 g ai/ha, scale 0 to 100, 0 no effect, 100 complete control
[22] = Preemergence, 125 g ai/ha, visual, scale 0 no effect to 100 complete control
[23] = Preemergence, 250 g ai/ha, visual, scale 0 no effect to 100 complete control
[24] = 62 g ai/ha, scale 0 to 100 (0 no effect, 100 complete control)
[25] = 31 g ai/ha, scale 0 to 100, 0 no effect, 100 complete control
[26] = 125 g ai/ha, visual, scale 0 no effect to 100 complete control
[27] = 250 g ai/ha, visual, scale 0 no effect to 100 complete control
[28] = 125 g ai/ha, scale 0 to 100 (0 no effect, 100 complete control)
[29] = 125 g ai/ha, Preemergence, scale 0 to 100 (0 no effect, 100 complete control)

Cc1nn(C)c(=O)c(-c2ccc(F)c3ccccc23)c1O [Compound 41]
40: Plant response rating, Barnyardgrass [2, 22] | Plant response rating, Soybean (soybean (Glycine max); [16])
35: Plant response rating, Barnyardgrass [2, 16] | Plant response rating, Soybean (soybean (Glycine max); [17])
80: Plant response rating, Crabgrass, Brazil [3, 21] | Plant response rating, Crabgrass, Brazil [3, 23] | Plant response rating, Crabgrass, Large [4, 26] | Plant response rating, Field Bindweed [5, 20] | Plant response rating, Horseweed [8, 16] | Plant response rating, Horseweed [8, 18] | Plant response rating, Nightshade [11, 24] | Plant response rating, Panicum, Fall [12, 21] | Plant response rating, Ragweed [14, 20]
5: Plant response rating, Ragweed [14, 21]
65: Plant response rating, Barnyardgrass [2, 23] | Plant response rating, Crabgrass, Brazil [3, 17] | Plant response rating, Crabgrass, Large [4, 25] | Plant response rating, Foxtail, Giant [6, 24] | Plant response rating, Soybean (soybean (Glycine max); [23])
20: Plant response rating, Arrowleaf Sida [1, 21] | Plant response rating, Barnyardgrass [2, 20] | Plant response rating, Crabgrass, Brazil [3, 16] | Plant response rating, Soybean (soybean (Glycine max); [29])
10: Plant response rating, Barnyardgrass [2, 21] | Plant response rating, Crabgrass, Brazil [3, 20] | Plant response rating, Surinam Grass [15, 25]
50: Plant response rating, Arrowleaf Sida [1, 17] | Plant response rating, Barnyardgrass [2, 18] | Plant response rating, Crabgrass, Brazil [3, 19] | Plant response rating, Goosegrass [7, 26] | Plant response rating, Morningglory [10, 24] | Plant response rating, Panicum, Fall [12, 19] | Plant response rating, Pigweed, Palmer [13, 20]
75: Plant response rating, Field Bindweed [5, 22] | Plant response rating, Horseweed [8, 20] | Plant response rating, Pigweed, Palmer [13, 29] | Plant response rating, Soybean (soybean (Glycine max); [19]) | Plant response rating, Surinam Grass [15, 24] | Plant response rating, Surinam Grass [15, 28]
30: Plant response rating, Crabgrass, Brazil [3, 18] | Plant response rating, Field Bindweed [5, 21] | Plant response rating, Foxtail, Giant [6, 25] | Plant response rating, Morningglory [10, 25] | Plant response rating, Panicum, Fall [12, 18] | Plant response rating, Soybean (soybean (Glycine max); [20])
90: Plant response rating, Arrowleaf Sida [1, 16] | Plant response rating, Arrowleaf Sida [1, 19] | Plant response rating, Field Bindweed [5, 16] | Plant response rating, Field Bindweed [5, 23] | Plant response rating, Foxtail, Giant [6, 27] | Plant response rating, Morningglory [10, 28] | Plant response rating, Panicum, Fall [12, 17] | Plant response rating, Pigweed, Palmer [13, 18] | Plant response rating, Ragweed [14, 18] | Plant response rating, Ragweed [14, 29]
95: Plant response rating, Arrowleaf Sida [1, 18] | Plant response rating, Field Bindweed [5, 19] | Plant response rating, Morningglory [10, 27] | Plant response rating, Panicum, Fall [12, 29] | Plant response rating, Pigweed, Palmer [13, 19] | Plant response rating, Ragweed [14, 19] | Plant response rating, Surinam Grass [15, 27]
98: Plant response rating, Arrowleaf Sida [1, 22] | Plant response rating, Nightshade [11, 28] | Plant response rating, Nightshade [11, 27] | Plant response rating, Panicum, Fall [12, 23]
70: Plant response rating, Crabgrass, Large [4, 24] | Plant response rating, Field Bindweed [5, 17] | Plant response rating, Foxtail, Giant [6, 26] | Plant response rating, Horseweed [8, 19] | Plant response rating, Ragweed [14, 17]
85: Plant response rating, Arrowleaf Sida [1, 20] | Plant response rating, Field Bindweed [5, 18] | Plant response rating, Pigweed, Palmer [13, 17] | Plant response rating, Pigweed, Palmer [13, 23]
60: Plant response rating, Barnyardgrass [2, 19] | Plant response rating, Crabgrass, Large [4, 27] | Plant response rating, Goosegrass [7, 27] | Plant response rating, Pigweed, Palmer [13, 16] | Plant response rating, Soybean (soybean (Glycine max); [18])
15: Plant response rating, Panicum, Fall [12, 20] | Plant response rating, Pigweed, Palmer [13, 21]
100: Plant response rating, Arrowleaf Sida [1, 23] | Plant response rating, Crabgrass, Brazil [3, 22] | Plant response rating, Horseweed [8, 17] | Plant response rating, Horseweed [8, 21] | Plant response rating, Horseweed [8, 22] | Plant response rating, Horseweed [8, 23] | Plant response rating, Ragweed [14, 23]
0: Plant response rating, Goosegrass [7, 24] | Plant response rating, Goosegrass [7, 25] | Plant response rating, Johnsongrass [9, 24] | Plant response rating, Johnsongrass [9, 25] | Plant response rating, Johnsongrass [9, 26] | Plant response rating, Soybean (soybean (Glycine max); [21])
25: Plant response rating, Barnyardgrass [2, 17] | Plant response rating, Johnsongrass [9, 27] | Plant response rating, Nightshade [11, 25] | Plant response rating, Panicum, Fall [12, 16]
